Like-named read-outs stand apart in the source and are kept apart here.
Assays:
[1] = test system: HEK293 GFP Parkin cells; assay: Parkin recruitment assay; format: cell-based
Experimental: HEK293 GFP Parkin cells were seeded into 12-well plates containing coverslips. Cells were treated with small molecules for 2 hours prior to mitophagy induction with 10 μM CCCP, unless indicated otherwise. Following fixation with 4% PFA, immunostaining was carried out using anti-ATP5A primary antibody and anti-mouse Alex Fluor 568.
To measure the percentage of cells with Parkin localized to mitochondria a 2 step process was employed: (1) whole cell segmentation based on GFP Parkin using CellProfiler software and (2) classification into Parkin distribution subpopulation using CellProfiler Analyst. The percentage of cells with Parkin localized to mitochondria was determined in each image. Images were taken at 20× magnification for this experiment, resulting in the classification of at least 300 cells in each treatment group per trial.

[2] = test system: HK2; assay: HK2 mitochondrial fraction and phosphorylation (fractionation, Phos-tag immunoblot); format: cell-based
Experimental: (a) SH-SY5Y treated with either 0.5 μM SR3677 or with DMSO were separated into total cell cytosolic and mitochondrial fractions. Fractions were separated by SDS-PAGE and immunoblotting was performed with anti-HK2 and anti-ATP5A antibodies. (b) The proposed mechanism through which SR3677 increases Parkin recruitment. (c) Cells serum-starved for 2 hours were treated with either DMSO or SR3677 for 10 or 30 minutes prior to harvesting. Lysates were separated by SDS-PAGE and immunoblotting was performed with anti-HK2 and anti-actin antibodies. Samples were also run on Phos-tag gels in parallel and immunoblotting was performed with anti-HK2 antibody. (d) Densitometry analysis was performed to quantify HK2 levels in each sample, followed by (e) normalization to mitochondrial marker, CValpha. Average HK2/CValpha ratios are plotted (n=2 independent experiments). (f) Densitometry analysis was performed on the band indicated by the arrow in (c). The average intensity of the indicated band normalized to actin loading control is expressed[…] (n=3 independent experiments). P-values were determined by paired student's t-test for (b, f), *P<0.05. All error bars represent s.e.m. […]

[3] = test system: HeLa cells; assay: HK2 distribution after mitochondrial damage; format: cell-based; conditions: HeLa cells which lack endogenous Parkin
Description: Since HK2 is also a Parkin substrate, HeLa cells which lack endogenous Parkin were used to examine the effect of SR3677 treatment on HK2 distribution^43.

[4] = test system: Drosophila; format: in vivo
Experimental: Fresh vials containing standard fly food supplemented with the indicated treatments were changed out every 2 days. The number of flies surviving each day was counted and log-rank tests were performed to determine statistical significance. 20 flies per treatment, n=5 (c) The climbing ability of flies treated as described in (a and bin) was assessed 4 days following initial administration of treatments. The number of flies to climb beyond 9.5 cm every 10 seconds was assessed. The percentage of flies in each treatment to cross this line was determined. The climbing ability of each treatment was normalized to the control group treated with water only. 20 flies per treatment, n=5. (d) The climbing ability of UAS-park^RNAi and ddc-GAL4>UAS-park^RNAi flies fed either paraquat or paraquat in combination with SR3677. 20 flies per treatment, n=7. (e) Proteins lysates from UAS-park^RNAi or tubulin>UAS-park^RNAi whole flies were separated by SDS-PAGE. Immunoblotting with anti-Parkin and anti-actin antibody was performed. (f) The climbing ability of TH-GAL flies fed either paraquat or paraquat in combination with SR3677. (g) Survival of heteroplasmic mt:Coll^T300l flies fed fly food supplemented with water or 2 mM SR3677 and wild-type Canton(S) flies (n=3 independent experiments). (h) The climbing ability of heteroplasmic mt:Coll^T300l flies fed either water or 2 mM SR3677 for 7 days. Log-rank tests were performed to determine p-values for survival analyses (a, b, g), *P<0.05. P-values were determined by one-tailed paired student's t-test for all climbing assays (c-e, h), *P<0.05. Data is expressed as mean±s.e.m. All error bars represent s.e.m
Male Canton(S) Drosophila were aged 7 days prior to feeding with standard fly food supplemented with water, 10 mM paraquat, 1 mM SR3677, or with combinations of these chemicals. Flies were placed into new vials containing fresh food supplemented with the treatments previously administered and 2 days later, climbing assays were performed. Flies were placed into plastic cylinder vials and tapped down, so all flies fell to the bottom. The number of flies to climb beyond 12.5 cm was counted every 10 s and values are represented as the percentage of total flies in each treatment group.

[5] = test system: S2R+ cells; assay: mitoSOX mitochondrial superoxide staining; format: cell-based; conditions: co-treatment with paraquat
Experimental: A) Staining was performed with mitoSOX Red Mitochondrial Superoxide dye. B) Quantification of the fluorescence intensity of the mitoSOX probe in the indicated treatments (n=3). Data is presented as mean±s.e.m. P-values were determined by paired student's t-test, *P-value<0.05.
Whether SR3677 may protect against paraquat-induced phenotypes by interfering with paraquat's activity was also assessed. Paraquat gives rise to mitochondrial superoxide species that can be detected using mitoSOX, a fluorescent probe that is targeted to mitochondria, where it may be oxidized by superoxides. The oxidized mitoSOX species fluoresces upon encountering nucleic acid. The fluorescence intensity of Schneider's S2-R^+ cells, a cell line derived from dissociated embryos with a flat morphology amenable to imaging, was assessed following treatments with paraquat or paraquat and SR3677.

[6] = target: ROCK2 (Homo sapiens, UniProt O75116); conditions: biochemical and cell-based assays, previous studies; cited from earlier work
ROCK2, sequence (O75116 whole entry): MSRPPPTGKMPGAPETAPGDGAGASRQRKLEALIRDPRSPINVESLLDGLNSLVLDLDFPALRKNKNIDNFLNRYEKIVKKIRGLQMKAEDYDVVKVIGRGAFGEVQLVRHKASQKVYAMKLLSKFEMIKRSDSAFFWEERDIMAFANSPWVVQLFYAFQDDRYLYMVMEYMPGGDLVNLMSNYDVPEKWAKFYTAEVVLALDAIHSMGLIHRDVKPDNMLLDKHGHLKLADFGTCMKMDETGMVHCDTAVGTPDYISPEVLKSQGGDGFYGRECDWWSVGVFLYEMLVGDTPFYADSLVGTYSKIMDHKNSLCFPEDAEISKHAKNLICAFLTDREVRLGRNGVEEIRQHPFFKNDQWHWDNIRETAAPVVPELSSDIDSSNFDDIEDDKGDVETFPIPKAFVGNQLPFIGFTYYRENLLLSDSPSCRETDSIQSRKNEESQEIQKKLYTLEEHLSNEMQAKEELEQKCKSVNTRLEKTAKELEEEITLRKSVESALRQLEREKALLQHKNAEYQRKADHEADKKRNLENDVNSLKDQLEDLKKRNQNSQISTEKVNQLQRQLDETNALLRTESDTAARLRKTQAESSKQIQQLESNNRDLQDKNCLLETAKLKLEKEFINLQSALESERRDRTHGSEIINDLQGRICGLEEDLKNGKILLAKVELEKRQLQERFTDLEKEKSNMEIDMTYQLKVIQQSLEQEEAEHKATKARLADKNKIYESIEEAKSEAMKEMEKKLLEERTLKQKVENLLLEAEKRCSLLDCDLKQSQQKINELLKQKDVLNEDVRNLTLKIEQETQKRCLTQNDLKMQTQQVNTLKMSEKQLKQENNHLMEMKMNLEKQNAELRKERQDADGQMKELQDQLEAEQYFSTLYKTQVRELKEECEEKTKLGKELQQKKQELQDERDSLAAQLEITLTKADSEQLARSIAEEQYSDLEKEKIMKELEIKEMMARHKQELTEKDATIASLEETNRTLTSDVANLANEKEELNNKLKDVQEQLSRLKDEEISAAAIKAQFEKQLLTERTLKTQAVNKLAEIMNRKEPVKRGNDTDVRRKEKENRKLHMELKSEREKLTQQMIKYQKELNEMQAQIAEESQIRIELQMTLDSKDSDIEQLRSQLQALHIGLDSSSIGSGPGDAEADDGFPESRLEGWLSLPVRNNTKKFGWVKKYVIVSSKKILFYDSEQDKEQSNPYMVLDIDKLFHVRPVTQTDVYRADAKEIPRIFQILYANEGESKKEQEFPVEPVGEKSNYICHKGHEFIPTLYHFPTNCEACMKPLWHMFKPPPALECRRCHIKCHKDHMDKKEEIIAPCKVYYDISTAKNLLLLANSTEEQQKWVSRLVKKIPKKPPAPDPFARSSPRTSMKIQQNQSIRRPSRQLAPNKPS

CN(C)CCOc1cc(-c2cn[nH]c2)ccc1NC(=O)[C@@H]1COc2ccccc2O1 [SR3677]
Parkin recruitment to damaged mitochondria ([1]; 0.5 μM, 17 hour and 2 hour pre-incubation, CCCP): increased Parkin recruitment to damaged mitochondria | EC50 ([1]; Homo sapiens, HEK293, 2 h pre-treatment, then 10 μM CCCP 1 h, read-out: EC50, percentage of cells with mitochondrial Parkin): 57 nM | Parkin distribution in the absence of CCCP ([1]; compound alone): diffuse | concentration at which the maximal effect on Parkin recruitment was achieved ([1]; dose series, CCCP): ≤ 0.5 µM | HK2 in the mitochondrial fraction ([2]; SH-SY5Y cells, 0.5 μM): More HK2 was observed in the mitochondrial fraction | phosphorylation of HK2 (Phostag gels) ([2]; serum-starved cells, 10 or 30 minutes): Increased phosphorylation of HK2 | mitochondrial distribution of HK2 following mitochondrial damage [3]: increases the mitochondrial distribution of HK2 | climbing ability of paraquat-treated flies ([4]; Canton(S), 1 mM SR3677 with 10 mM paraquat): restores climbing ability | climbing ability with paraquat ([4]; TH-GAL4, UAS-rok^RNAi flies): No further improvement to climbing ability | climbing ability with paraquat ([4]; UAS-park^RNAi flies): improved | paraquat-induced climbing defects ([4]; ddc-GAL4>UAS-park^RNAi flies): no improvement | paraquat-mediated increase in mitochondrial superoxide levels [5]: does prevent the paraquat-mediated increase in mitochondrial superoxide levels | ROCK2 inhibition [6]: selectively inhibits ROCK2

From patent publication US20220074923A1, “METHODS OF IDENTIFYING PARKIN-MEDIATED MITOPHAGY ACTIVATING AGENTS” (THE GOVERNING COUNCIL OF THE UNIVERSITY OF TORONTO, priority 2018, published 2022)
